The text below walks through data of patent US12565511B2, “SOS1 inhibitor containing phosphorus” (Chia Tai Tianqing Pharmaceutical Group Co., Ltd., priority 2020, dated 2026).

Assay [1] deals with H358 human non-small cell lung cancer cells. Put plainly: Inhibition test of in vitro cell level phosphorylation activity (pERK). The assay is classed as cell-based. To be noted: NCI-H358, ERK phosphorylation inhibition, compound 1 h. The procedure:
Test Example 1 Inhibition Test of In Vitro Cell Level Phosphorylation Activity
1.2 Test Method for In Vitro Cell Level Phosphorylation Activity
A dish of H358 human non-small cell lung cancer cells (Nanjing Cobioer Biosciences Co., Ltd.) in logarithmic growth phase and good cell condition were added to a centrifuge tube and centrifuged at 1000 rpm for 5 min in a low speed benchtop centrifuge. The supernatant was discarded, and 5 mL of a plating medium containing 5% FBS was added using a pipette for cell resuspension. The cell suspension was loaded on a cell counter for counting, and diluted with the plating medium to adjust the cell density to 1.5×10^5 cells/mL. The cells were seeded on a black clear-bottom 384-well plate at 40 μL/well using a multi-channel pipette, and cultured overnight in a cell incubator at 37° C., 5% CO2 and saturated humidity. […] The medium was discarded after 1 h, 40 μL, of 4% polyoxymethylene was added to each well, and the plate was incubated for 20 min at room temperature and washed with PBS. […] 20 μL of 5% BSA blocking buffer was added to each well, and the blocking buffer was discarded after the plate was blocked for 1 h at room temperature. 20 μL of the primary antibody mixed solution was added to each well, wherein Rabbit anti-pERK was diluted at 1:1000 (final concentration) and mouse anti-GAPDH was diluted at 1:5000 (final concentration), and the plate was incubated overnight at 4° C. and washed with PBST. 20 μL of the secondary antibody mixed solution was added to each well, wherein goat anti rabbit 800 and goat anti mouse 647 were both diluted at 1:1000 (final concentration), and the plate was incubated in the dark at room temperature for 45 min and washed with PBST.

The next assay has as its system K562 cells. Put plainly: Assay for proliferation inhibitory activity of K562 cells. It is filed as cell-based. To be noted: Homo sapiens, 72 h, CCK-8, read-out: K562 cell proliferation inhibition IC50. The procedure: Test Example 4 Assay for Proliferation Inhibitory Activity of K562 Cells
The K562 cell line can be purchased from the American Type Culture Collection (ATCC).
The K562 cells in a good growth state were added to a centrifuge tube with the cell density adjusted to 3×10^4/mL, and seeded on a 96-well plate (100 μL/well). The cells were cultured overnight in a cell incubator, the compound was loaded using a nanoliter pipettor to allow the final compound concentration to be 10000 nM to 4.6 nM, 2 replicate wells were set and control was set.

The target of a further assay is T1, SOS1cat / KRAS G12C (Homo sapiens, UniProt Q07889).
T1 sequence (Q07889 564-1049): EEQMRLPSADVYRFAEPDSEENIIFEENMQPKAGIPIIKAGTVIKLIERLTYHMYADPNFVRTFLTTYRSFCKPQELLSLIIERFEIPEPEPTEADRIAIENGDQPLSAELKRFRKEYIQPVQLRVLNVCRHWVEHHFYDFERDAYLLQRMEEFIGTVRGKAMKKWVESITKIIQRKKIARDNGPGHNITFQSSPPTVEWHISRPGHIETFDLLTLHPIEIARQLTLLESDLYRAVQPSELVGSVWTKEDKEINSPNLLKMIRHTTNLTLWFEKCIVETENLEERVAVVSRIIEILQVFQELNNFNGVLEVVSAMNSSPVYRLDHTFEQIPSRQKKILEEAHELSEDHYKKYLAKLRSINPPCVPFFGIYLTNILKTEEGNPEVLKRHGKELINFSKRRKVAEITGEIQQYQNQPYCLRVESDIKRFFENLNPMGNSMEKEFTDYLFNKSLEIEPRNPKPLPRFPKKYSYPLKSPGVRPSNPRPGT
Put plainly: Guanine nucleotide exchange test (HTRF). The assay is classed as biochemical. To be noted: SOS1cat-mediated loading of EDA-GTP-DY-647P1 on His-KRAS G12C, 20° C.; read-out: Nucleotide conversion of HTRF IC50. The procedure: Test Example 2 Guanine Nucleotide Exchange Test
This test quantitatively investigates the ability of SOS to mediate KRAS activation. KRAS G12C with a His tag was added to the system, anti-His antibody labeled with lanthanide Eu was combined with the system, then auxiliary protein SOS1cat and GTP analogue EDA-GTP-DY-647P1 with fluorophore were added thereto, the GTP analogue with fluorophore was loaded on KRAS G12C with the assistance of the auxiliary protein, and then energy resonance transfer occurred between Anti-6HS-Cryptate (FRET donor) and EDA-GTP-DY-647P1 (FRET acceptor).
However, after pretreatment with SOS1 inhibitor compounds, the ability of SOS1 to bind and mediate KRAS activation was weakened, and the ability of FRET between donor and acceptor was weakened.
Test buffer was prepared with the following components: HEPES pH 7.4: 20 mM; NaCl: 150 mM; MgCl2: 0.5 mM; DTT: 2 mM; BSA: 0.05%; and Igepal: 0.0025%.
KRAS G12C working solution, SOS1cat working solution and blank control solution were prepared with the test buffers; wherein the KRAS G12C working solution contained 100 nM His-KRAS G12C and 2 nM […]; the SOS1cat working solution contained 20 nM SOS1cat and 200 nM EDA-GTP-DY-647P1; and the blank control solution contained 100 nM EDA-GTP-DY-647P1.
The whole test procedures were completed at 20° C.
On the technique in general: Time-resolved FRET reads energy transfer from a long-lived donor to a nearby acceptor.

The target in the next assay is T2, KRAS-G12C/SOS1 (Homo sapiens, UniProt Q07889).
T2 sequence (Q07889 564-1049): T1 sequence (Q07889 564-1049)
As to the kind of experiment: biochemical.

On to `COc1cc2nc(C)nc(N[C@H](C)c3cccc(C(F)F)c3C)c2cc1P1(=O)CCN(C(C)=O)CC1` [Example 12], for which the EC50 (as a rule, the concentration that produces a half-maximal response) in assay [1] stood at 103 nM.
Turning to `COc1cc2nc(C)nc(N[C@H](C)c3cccc(C(F)F)c3C)c2cc1P1(=O)CCN(C(=O)C2CC2)CC1` [Example 14], the EC50 in assay [1] is 108 nM. This EC50 and that of the compound before are within 1.5-fold of each other.
On the same count and under the same terms, the result for `COc1cc2nc(C)nc(N[C@H](C)c3cccc(C(C)(F)F)c3F)c2cc1P1(=O)CCN(C(C)=O)CC1` [Example 15] reads 148 nM; that for `COc1cc2nc(C)nc(N[C@H](C)c3cccc(C(C)(F)F)c3F)c2cc1P1(=O)CCN(C(=O)C2CC2)CC1` [Example 17], 82 nM.
Still for that read-out and setting: with `COc1cc2nc(C)nc(N[C@H](C)c3cc(N)cc(C(F)(F)F)c3C)c2cc1P1(=O)CCN(C(C)=O)CC1` [Example 18] the figure was 71 nM.
Turning to `COc1cc2nc(C)nc(N[C@H](C)c3cc(N)cc(C(F)F)c3)c2cc1P1(=O)CCCCC1` [Example 65], the IC50 in the assay with K562 cells came out at 433 nM; on SOS1cat / KRAS G12C it was 482 nM; on KRAS-G12C/SOS1, 56 nM.
